{"source": "ChEMBL document CHEMBL4480443", "about": "“Synthesis and biological evaluation of solubilized sulfonamide analogues of the phosphatidylinositol 3-kinase inhibitor ZSTK474” (Bioorg Med Chem, 2019)", "key": {"[1]": {"settings": "0.25 h"}, "physchem [2]": {"assay": "physchem", "settings": "aqueous medium with DMSO"}, "physchem [3]": {"assay": "physchem", "settings": "buffer"}}}
{"smiles": "COc1cccc2c1nc(C(F)F)n2-c1nc(N2CCOCC2)nc(N2CCN(S(C)(=O)=O)CC2)n1", "values": [{"measurement": "solubility", "setting": "[1]", "value": "Insoluble"}]}
{"smiles": "COc1cccc2c1nc(C(F)F)n2-c1nc(N2CCOCC2)nc(N2CCN(S(=O)(=O)CCN(C)C)CC2)n1.Cl", "values": [{"measurement": "solubility at 0.25 h", "setting": "physchem [2]", "value": 24, "unit": "µg/mL"}]}
{"smiles": "COc1cccc2c1nc(C(F)F)n2-c1nc(N2CCOCC2)nc(N2CCN(S(=O)(=O)CCN(C)C)CC2)n1.CS(=O)(=O)O", "values": [{"measurement": "solubility", "setting": "physchem [3]", "value": "> 59", "unit": "µg/mL"}]}
